In the NIST ThermoML archive (doi:10.1021/je0604232):

Assay: molar heat capacity at constant pressure; xn = mol fraction of the nth substance listed
Settings: 101 kPa, Liquid

CC(O)CN (stereo not given) [1-amino-2-propanol] + O
molar heat capacity at constant pressure [J/K/mol]
Settings	x1 = 0.1	x1 = 0.2007	x1 = 0.2996	x1 = 0.4001	x1 = 0.4983	x1 = 0.6013	x1 = 0.6999	x1 = 0.7996	x1 = 0.8959	x1 = 1
303.15 K	95	110	121	133	145	158	170	183	196	209
308.15 K	97	113	124	137	149	162	174	187	200	213
313.15 K	98	114	126	139	151	164	176	188	201	214
318.15 K	99	116	128	141	154	166	177	190	202	215
323.15 K	100	117	130	144	156	168	180	192	204	217
328.15 K	102	119	133	147	159	171	182	194	206	218
333.15 K	104	121	136	150	162	174	185	197	209	221
338.15 K	106	125	140	154	166	178	188	200	211	223
343.15 K	109	128	144	158	170	181	192	203	214	225
348.15 K	112	133	149	163	175	185	195	206	216	228
353.15 K	117	138	155	169	180	190	199	209	219	230
